Legend:
[1] = tested on: E. coli ATCC 25922; assay: microbe, parasite or virus in culture; type: cell-based
Experimental: (§1) Experiments were performed with two biological replicates.

[2] = tested on: S. aureus ATCC 29213; assay: microbe, parasite or virus in culture; type: cell-based
Experimental: as §1

[3] = tested on: MDR E. coli B2 (mcr-1 + blaNDM-5); assay: microbe, parasite or virus in culture; type: cell-based
Experimental: as §1

[4] = tested on: S. enteritidis ATCC 13076; assay: microbe, parasite or virus in culture; type: cell-based
Experimental: as §1

[5] = tested on: S. aureus 215 (cfr + LZD^R); assay: microbe, parasite or virus in culture; type: cell-based; settings: S. aureus 215 (cfr + LZD^R)
Experimental: as §1

[6] = tested on: E. coli 1F28 (tet(X4)); assay: MIC/MBC, broth micro-dilution; type: cell-based; settings: E. coli 1F28 (tet(X4))
Experimental: as §1

[7] = tested on: E. faecalis A4 (VRE); assay: MIC/MBC, broth micro-dilution; type: cell-based; settings: E. faecalis A4 (VRE)
Experimental: as §1

[8] = tested on: E. coli B3-1 (tet(X4)); assay: MIC/MBC, broth micro-dilution; type: cell-based; settings: E. coli B3-1 (tet(X4))
Experimental: as §1

[9] = tested on: E. coli 1F28; assay: Cytoplasmic membrane potential (DiSC3(5)); type: cell-based; settings: 0 to 128 μg/mL, 60 min
Experimental: A fluorescent probe DiSC3(5) (Aladdin, Shanghai, China) was utilized to evaluate the effect of WRK-12 on bacterial membrane potential. E. coli 1F28 cells were probed with 3,3′-dipropylthiadicarbocyanine iodide (DiSC3(5), 0.5 μM) for 30 min, and then treated with WRK-12 (0 to 128 μg/mL) or colistin (128 μg/mL) for 60 min. Subsequently, the dissipated membrane potential was determined by monitoring the fluorescence intensity (λexcitation = 622 nm, λemission = 670 nm) using a Microplate reader (Tecan, Männedorf, Switzerland).

[10] = tested on: MRSA T144; assay: MIC/MBC, broth micro-dilution; type: cell-based, Staphylococcus aureus; settings: MRSA T144
Experimental: as §1

[11] = tested on: E. coli 1F28; type: cell-based; settings: E. coli 1F28 and 1A34; 10 mM in MHB
[12] = tested on: E. coli 1F28; assay: Thermal and pH stability (residual antibacterial activity by MIC); type: physicochemical; settings: residual MIC against E. coli 1F28
Excerpt: Thermal, pH and proteolytic stability.

[13] = tested on: E. coli 1F28 biofilm; assay: Prevention of biofilm formation (crystal violet); type: cell-based; settings: 24 h
Experimental: The prevention of biofilm formation was assessed as described previously. Briefly, bacteria (1 × 10^5 CFUs per mL) were exposed to WRK-12 solutions (with final concentrations ranging from 0.25 to 32 μg/mL). As an untreated control, bacteria were exposed to MHB without drugs. After 24 h incubation at 37 °C in a humidified atmosphere, planktonic bacteria were removed by phosphate buffer solution (PBS). Biofilms were fixed with methanol for 15 min, then sucked out the fixative and air dry naturally. Then, biofilms were stained with 0.1% crystal violet for 15 min, washed and dried naturally. Finally, 33% acetic acid was used to dissolve crystal violet. The optical density at 570 nm was determined as a measure of biofilm mass.

[14] = tested on: pepsin; settings: pepsin 10 mg/mL, 1 h preincubation; residual MIC against E. coli 1F28
Experimental: Thermal, pH and proteolytic stability. WRK-12 was preincubated at different temperatures (from 25 to 121 °C), pH (from 2 to 12) or proteases (pepsin, trypsin and papain, final concentration 10 mg/mL) for 1 h. Samples after pH treatment were readjusted to pH = 7.2 to determine the residual antibacterial activity by MIC tests. Samples after proteases treatment were heated at 80 °C for 30 min, and centrifuged at 13,000× g for 30 min to precipitate proteases, and the residual antibacterial activity of supernatants was tested by MIC analysis.

[15] = tested on: E. coli 1F16; assay: MIC, tigecycline-resistant clinical isolate; type: cell-based; settings: E. coli 1F16, feces, tigecycline-resistant clinical isolate; broth micro-dilution
Experimental: as §1

[16] = tested on: Shigella 1F25; assay: MIC, tigecycline-resistant clinical isolate; type: cell-based; settings: Shigella 1F25, feces, broth micro-dilution
Experimental: as §1

[17] = tested on: E. coli 2A19; assay: MIC, tigecycline-resistant clinical isolate; type: cell-based; settings: E. coli 2A19, tigecycline-resistant clinical isolate; broth micro-dilution
Experimental: as §1

[18] = tested on: E. coli 1A34; assay: MIC, tigecycline-resistant clinical isolate; type: cell-based; settings: E. coli 1A34, anal swab, tigecycline-resistant clinical isolate; broth micro-dilution
Experimental: as §1

[19] = tested on: E. coli 1N31; assay: MIC, tigecycline-resistant clinical isolate; type: cell-based; settings: E. coli 1N31, tigecycline-resistant clinical isolate; broth micro-dilution
Experimental: as §1

[20] = tested on: E. coli 1F31; assay: MIC, tigecycline-resistant clinical isolate; type: cell-based; settings: E. coli 1F31, tigecycline-resistant clinical isolate; broth micro-dilution
Experimental: as §1

[21] = tested on: E. coli 1C1; assay: MIC, tigecycline-resistant clinical isolate; type: cell-based; settings: E. coli 1C1, dust, tigecycline-resistant clinical isolate; broth micro-dilution
Experimental: as §1

[22] = tested on: E. coli 1N28; assay: MIC, tigecycline-resistant clinical isolate; type: cell-based; settings: E. coli 1N28, nasal swab, tigecycline-resistant clinical isolate; broth micro-dilution
Experimental: as §1

[23] = tested on: E. coli 2W25; assay: MIC, tigecycline-resistant clinical isolate; type: cell-based; settings: E. coli 2W25, water, tigecycline-resistant clinical isolate; broth micro-dilution
Experimental: as §1

[24] = tested on: E. coli 1F28; assay: LPS, lipids or NAC inhibition assay (MIC); type: cell-based
Excerpt: Lipopolysaccharides (LPS), lipids or NAC inhibition assay.

[25] = broth micro-dilution CLSI 2018, MHB, 18 h, 37 °C
[26] = lowest concentration killing 99.9%, plated on MHA

Ac-WRLRWKTRWRLK-NH2 [WRK-12]
MBC ([1]; ATCC 25922, 4 h): 8 µg/mL | MIC ([1]; ATCC 25922, 18 h): 4 µg/mL | MBC ([2]; ATCC 29213, 4 h): 4 µg/mL | MIC ([2]; ATCC 29213, 18 h): 4 µg/mL | MBC ([3]; MDR B2 (mcr-1 + blaNDM-5, 4 h)): 4 µg/mL | MIC decrease relative to WL-9 ([3]; MDR E. coli B2, insertion of three positive amino acids in WL-9): 4 fold | MBC ([4]; ATCC 13076, 4 h): 4 µg/mL | MIC ([4]; ATCC 13076, 18 h): 4 µg/mL | MIC [5, 25]: 2 µg/mL | MBC [5, 26]: 2 µg/mL | MIC [6, 25]: 2 µg/mL | MBC [6, 26]: 8 µg/mL | MIC [7, 25]: 4 µg/mL | MBC [7, 26]: 8 µg/mL | MIC [8, 25]: 2 µg/mL | MBC [8, 26]: 2 µg/mL | membrane potential (ΔΨ), DiSC3(5) fluorescence [9]: significantly dissipated membrane potential | MIC [10, 25]: 2 µg/mL | MBC [10, 26]: 2 µg/mL | activity in the presence of monovalent cations (Na^+ and K^+) [11]: not any loss of activity | activity reduction after thermal treatment ([12]; 121 °C, 1 h): 50% | activity reduction after pH treatment ([12]; alkaline environment pH = 12, 1 h, readjusted to pH 7.2): 50% | remaining antibacterial activity after pH treatment ([12]; pH 2 to 10 for 1 h, readjusted to pH 7.2): completely retained its activity | remaining antibacterial activity after thermal treatment ([12]; treatment under 100 °C for 1 h): completely retained its activity | inhibition of biofilm formation ([13]; 0.5 μg/mL, 37 °C, crystal violet OD570): significant inhibition effect | biofilm mass ([13]; 2 μg/mL or higher, crystal violet staining): drastically reduced | proteolytic stability [14]: resistant | MIC [15]: 4 µg/mL | MIC [16]: 8 µg/mL | MIC [17]: 16 µg/mL | MIC [18]: 2 µg/mL | MIC [19]: 16 µg/mL | MIC [20]: 4 µg/mL | MIC [21]: 4 µg/mL | MIC [22]: 8 µg/mL | MIC [23]: 4 µg/mL | MIC increase with exogenous CL ([24]; 16 μg/mL CL, E. coli 1F28): 16 fold | MIC increase with exogenous PG ([24]; 16 μg/mL PG, E. coli 1F28): 16 fold | effect of exogenous LPS on antibacterial activity ([24]; LPS from E. coli O111:B4, 0 to 128 μg/mL, MIC against E. coli 1F28, chequerboard broth microdilution): weakened WRK-12 activity in a dose-dependent manner | MIC increase with ROS scavenger NAC ([24]; NAC 2.5 mM, E. coli 1F28, three independent experiments): 6 fold | effect of exogenous PE on antibacterial activity ([24]; PE 0 to 16 μg/mL, E. coli 1F28): mildly impaired WRK-12 activity

— article PMC7564829, “Potent Broad-Spectrum Antibacterial Activity of Amphiphilic Peptides against Multidrug-Resistant Bacteria” (Microorganisms, 2020)
